We go through eleven compounds from ChEMBL document CHEMBL1201862, “PubChem BioAssay data set” (2004).

Some test systems named below: SNB-75; MOLT-4; SN12C; COLO 205; SK-MEL-2; HCT-116; OVCAR-5; UO-31; NCI-H522; KM12; OVCAR-8; K562; SF-295; M14; U-251; SF-268; HT-29; ACHN; OVCAR-3; LOX IMVI.
What all share (assay): NCI anticancer screen, dose series, 48 h

Structures are written as SMILES.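 Protocol summary: plate cells (96-well), add compound at 5 concentrations, incubate 48 h, interpolate endpoints linearly. Abbreviation: GI50, concentration required for 50% inhibition of growth.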 Activity calls are given as the source filed them. No stated cut-off is given here; in the data, active = GI50 up to about 1.1 µM and inactive = higher.

As for `CCOC(=O)C(=O)Nc1cccc(C)c1C`, the GI50 in the test on SNB-75, in the test on MOLT-4, in the test with SN12C, in the test with COLO 205, in the test with SK-MEL-2 and in the test with HCT-116 was > 100 µM (inactive) in each case. The GI50 in the test with OVCAR-5, in the test with UO-31, in the test on NCI-H522, with KM12, in the test with OVCAR-8 and in the test with K562 was > 100 µM (inactive) throughout. Further, the GI50 in the test on SF-295, in the test on M14, in the test on U-251, in the test on SF-268, in the test on HT-29 and with ACHN was > 100 µM (inactive) each time. Moreover, the GI50 in the test on OVCAR-3 was > 100 µM (inactive).
For `COc1cccc(C2C(C(=O)O)=C(CO)Oc3cc4c(cc32)OCO4)c1` (configuration not stated), the GI50 in the test with SNB-75, with MOLT-4, with SN12C, in the test with COLO 205, in the test on SK-MEL-2 and with LOX IMVI was > 100 µM (inactive) in each case. The GI50 with UO-31, in the test with NCI-H522, in the test with OVCAR-8, in the test with K562, in the test with SF-295 and in the test with M14 was > 100 µM (inactive) each time. For the same compound, the GI50 with U-251, with SF-268, in the test on HT-29, in the test with ACHN and with OVCAR-3 was > 100 µM (inactive) each time.
Regarding `CCOC(=O)/C(=C/c1cn(C(C)=O)c2ccccc12)P(=O)(OC)OC`, the GI50 was 16 µM (inactive) in the test with SNB-75; 25.4 µM (inactive) with MOLT-4; 31.6 µM (inactive) in the test with SN12C; > 10 µM (inactive) with COLO 205; 31.1 µM (inactive) in the test on SK-MEL-2; 30.8 µM (inactive) in the test on HCT-116. Also, the GI50 is 25.3 µM (inactive) with LOX IMVI; 40.6 µM (inactive) in the test on OVCAR-5; 30.5 µM (inactive) in the test with NCI-H522; 46.7 µM (inactive) in the test on OVCAR-8; 25.6 µM (inactive) in the test with K562; 44.4 µM (inactive) in the test with SF-295. Further, the GI50 with M14 is 52.4 µM (inactive); with U-251, 30.4 µM (inactive); in the test with HT-29, 40.5 µM (inactive); in the test with ACHN, 31.4 µM (inactive); with OVCAR-3 it was 20.3 µM (inactive).
As for `OCc1cn(C(c2ccccc2)(c2ccccc2)c2ccccc2)cn1`, the GI50 was 22.2 µM (inactive) in the test on SNB-75; > 100 µM (inactive) in the test with MOLT-4; > 100 µM (inactive) with SN12C; > 100 µM (inactive) in the test on COLO 205; > 100 µM (inactive) in the test on SK-MEL-2; > 100 µM (inactive) in the test on HCT-116. Further, the GI50 was 66.7 µM (inactive) in the test with LOX IMVI; > 100 µM (inactive) with OVCAR-5; > 100 µM (inactive) in the test with UO-31; > 100 µM (inactive) with NCI-H522; > 100 µM (inactive) in the test on OVCAR-8; > 100 µM (inactive) in the test with K562. In addition, the GI50 in the test on SF-295 is 32.3 µM (inactive); with M14 it was > 100 µM (inactive); with U-251 it was 50.9 µM (inactive); with HT-29 it was > 100 µM (inactive); in the test on ACHN it was 72.4 µM (inactive); in the test on OVCAR-3, > 100 µM (inactive).
Take `CC(C)(C)C(=O)OCC1OC(N=[N+]=[N-])C(OC(=O)C(C)(C)C)C(OC(=O)C(C)(C)C)C1OC(=O)C(C)(C)C` (configuration not stated): the GI50 in the test on SNB-75, in the test with MOLT-4, with SN12C, with COLO 205, in the test on SK-MEL-2 and with HCT-116 was > 100 µM (inactive) each time. Moreover, the GI50 in the test on OVCAR-5, in the test on UO-31, in the test with NCI-H522, with KM12, with OVCAR-8 and with K562 was > 100 µM (inactive) each time. The GI50 with SF-295, in the test on M14, in the test with U-251, in the test with SF-268, in the test with HT-29 and in the test with ACHN was > 100 µM (inactive) throughout. In the test on OVCAR-3, the GI50 was > 100 µM (inactive).
Regarding `C=COCCCOc1ccccc1`, the GI50 with MOLT-4, in the test on SN12C, in the test with COLO 205, in the test with SK-MEL-2, in the test on HCT-116 and in the test on LOX IMVI was > 100 µM (inactive) in each case. In addition, the GI50 in the test with OVCAR-5, in the test with UO-31, in the test with NCI-H522, in the test with KM12, in the test with OVCAR-8 and in the test on K562 was > 100 µM (inactive) each time. Also, the GI50 in the test with M14, in the test on U-251, in the test with SF-268, in the test on HT-29, with ACHN and with OVCAR-3 was > 100 µM (inactive) each time.
On to `CCc1c(-c2ccccc2)[nH]c2ccccc2c1=O`, for which the GI50 in the test with MOLT-4 was 95.7 µM (inactive); in the test on SN12C, > 100 µM (inactive); with SK-MEL-2 it was 71.1 µM (inactive); in the test with HCT-116, 41.3 µM (inactive); in the test on LOX IMVI, 48.1 µM (inactive); with OVCAR-5, > 100 µM (inactive). The GI50 in the test with UO-31 was 0.0412 µM (active); with KM12 it was 16.4 µM (inactive); in the test on K562, 28.6 µM (inactive); in the test with M14, 35.6 µM (inactive); in the test on U-251, > 100 µM (inactive); in the test on SF-268, 80.7 µM (inactive). Moreover, the GI50 with HT-29 is 57.7 µM (inactive); in the test on ACHN, 36.7 µM (inactive); in the test on OVCAR-3, 54.1 µM (inactive).
`CC(C)c1cccc(C(C)C)c1OS(=O)(=O)NC(=O)OC(C(F)(F)F)C(F)(F)F`: the GI50 in the test with MOLT-4 is 20 µM (inactive); with SN12C it was 33.2 µM (inactive); in the test on COLO 205, 88.3 µM (inactive); with SK-MEL-2, 35.8 µM (inactive); in the test with HCT-116, 31.5 µM (inactive); in the test with LOX IMVI, 50 µM (inactive). Moreover, the GI50 in the test with OVCAR-5 is > 100 µM (inactive); in the test with UO-31, 30.1 µM (inactive); in the test on NCI-H522 it was 39.5 µM (inactive); in the test on KM12, 43.7 µM (inactive); in the test on OVCAR-8, 46.5 µM (inactive); in the test with K562, 24.5 µM (inactive). For the same compound, the GI50 in the test with SF-295 is 25.3 µM (inactive); with M14, 19.2 µM (inactive); in the test with U-251, 43.7 µM (inactive); in the test on SF-268, 95.7 µM (inactive); in the test with ACHN it was 37.1 µM (inactive).
Consider `C=CS(=O)(=O)CCN1CC1`, for which the GI50 in the test on SNB-75, in the test with MOLT-4, with SN12C, in the test on COLO 205, in the test with HCT-116 and in the test with LOX IMVI was > 10 µM (inactive) in each case. Further, the GI50 in the test on OVCAR-5, in the test with NCI-H522, with KM12, in the test on OVCAR-8, with K562 and in the test on SF-295 was > 10 µM (inactive) each time. Also, the GI50 in the test on M14, in the test with U-251, in the test on SF-268, with HT-29, in the test on ACHN and with OVCAR-3 was > 10 µM (inactive) throughout.
As for `Cc1ccc(S(=O)(=O)N2CCCSCC2)cc1`, the GI50 is 61.7 µM (inactive) in the test on SNB-75; > 100 µM (inactive) in the test on MOLT-4; > 100 µM (inactive) in the test on SN12C; > 100 µM (inactive) with COLO 205; > 100 µM (inactive) in the test on HCT-116; > 100 µM (inactive) with LOX IMVI. Further, the GI50 in the test on UO-31 was 35.2 µM (inactive); in the test on NCI-H522 it was > 100 µM (inactive); in the test on KM12, > 100 µM (inactive); in the test on OVCAR-8, > 100 µM (inactive); with K562 it was > 100 µM (inactive); in the test on SF-295 it was > 100 µM (inactive). For the same compound, the GI50 with U-251, in the test with SF-268, in the test on HT-29 and in the test on ACHN was > 100 µM (inactive) throughout.
Turning to `O=C(NNC(=O)c1nsc2ccccc12)c1ccc(Cl)cc1`, the GI50 was 2.93 µM (inactive) in the test with SNB-75; 20.4 µM (inactive) in the test with MOLT-4; 17.6 µM (inactive) with SN12C; 23.7 µM (inactive) in the test on COLO 205; 22.3 µM (inactive) with SK-MEL-2; 17.5 µM (inactive) in the test on HCT-116. Also, the GI50 in the test with LOX IMVI is 18.1 µM (inactive); in the test on OVCAR-5 it was 20.4 µM (inactive); with UO-31, 18.9 µM (inactive); in the test on KM12, 27.2 µM (inactive); in the test on OVCAR-8, 29.2 µM (inactive); with K562, 19.1 µM (inactive). Besides, the GI50 in the test on M14 was 19.5 µM (inactive); in the test on U-251 it was 16.7 µM (inactive); in the test with SF-268, 17.7 µM (inactive); in the test on HT-29, 20.3 µM (inactive); in the test on ACHN it was > 100 µM (inactive); with OVCAR-3 it was 17.2 µM (inactive).
